This note sets out measurements from US6906078B2, “Method of using (H+/K+) ATPase inhibitors as antiviral agents” (Pharmacia Corporation, priority 1994, dated 2005).

For data set [1], the system named is gastric acid secretion. As to the kind of experiment: Inhibition of gastric acid secretion in gastric fistula beagle dogs (histamine-stimulated). In kind it is in vivo. Particulars: Canis lupus familiaris, 4 h, histamine-stimulated, four-hour period, read-out: Gastric-Fistula Beagle % Inhibition (3 mg/kg dose). A digest of the protocol:
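Conscious, 18 h-fasted female beagles with gastric (or duodenal) cannulas received compound i.v., i.g. or i.d. after a 30-min basal period, then 4 h i.v. histamine dihydrochloride at 15 mcg/kg/h. Gastric volume, acid concentration and total acid output collected every 30 min; percent inhibition versus controls, ED50 from dose-response curves.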

Data set [2] has as its system gastric acid secretion. Description: Inhibition of gastric acid secretion in meal-stimulated Pavlov pouch dog. It counts as in vivo, beagle dogs. Conditions: 3 mg/kg, four-hour period. As to the method: Adult female beagle dogs weighing 6 to 10 kilograms were obtained from Laboratory Research Enterprises (Kalamazoo, Mich.) or from Hazelton Research Animals (Cumberland, Va.). Surgical implantation of a Thomas-type gastric cannula into an innervated Pavlov pouch of each dog was performed by the method reported by L. Burrows et al., J. Surgical Res., 4, 147 (1964). After recovery from surgery, the dogs were trained to stand quietly, fully conscious, in Pavlov-type dog restraining slings. All dogs were deprived of food, but not water, for 24 hours prior to each assay. Basal acid secretion was measured by collecting from the cannulas for 30 minutes before dosing with a test compound. Solutions of the test compounds in iso-osmotic phosphate buffer (pH 7.4) were given either intravenously or directly into the Pavlov pouch. After 30 minutes the pouch was drained. The dogs were then fed 320 grams of dog food and gastric acid secretions were collected each half hour for four hours. Controls were determined in the same way except that only food (i.e., no test compound) was administered.
Data were analyzed for three different variables: volume of gastric juice, acid concentration, and total acid output. Percent inhibition for the four-hour experimental period was determined for each parameter by comparison with 3 to 4 controls. Estimates of ED50 were determined from dose response curves.

A further data set concerns HCMV (strain AD169). Description: Antiviral assay: HCMV antigen ELISA in infected human foreskin fibroblasts (MRHF). It counts as cell-based, human cytomegalovirus. Conditions: Human betaherpesvirus 5, Fibroblast; MRHF cells, HCMV AD169, moi 0.2, 96 hours; read-out: HCMV cell EC50. The text has this: These complimentary assays tested the ability of a compound to inhibit the production of new virus and the toxicity of the compound to the host cells. It was important that both assays be performed simultaneously in order to compare the results directly since, toxicity may indirectly reduce viral yield.
Viral yield was estimated by measuring the amount of a viral antigen produced 4 days post infection with a monoclonal antibody to an abundant “immediate early” viral protein. An enzyme-linked (horseradish peroxidase) secondary antibody specific to the primary (mouse) antibody was used to measure the amount of viral antigen. Test compounds were diluted to 2-times the desired final concentration in DMEM+5% FBS. One hundred microliters of this solution was placed in each well of a 96-well plate. This was performed once for the antiviral 96-well plate and again for a cytotoxicity plate. Two controls were also included for both plates; a no drug control and a ganciclovir control. Ganciclovir was included because it has known antiviral activity for HCMV. All cells were prepared by harvesting human foreskin fibroblasts, MRHF, with trypsin and re-suspending at a concentration of 5×10^5 cells per ml in DMEM. Infected cells were prepared by infecting these with HCMV (strain AD169) at a multiplicity of infection=0.2. One hundred microliters of uninfected cells (5×10^4 cells) were added to the appropriate wells of the cytotoxicity plate. In a similar manner 100 μl of infected cells (5×10^4 cells) were added to the appropriate wells of the antiviral plate. Additionally, uninfected cells not treated with test compound were included as controls on the antiviral plate. Plates were incubated for 96 hours at 37° C. in 5% CO2 atmosphere and processed to measure the amount of viral antigen and toxicity.
The following was performed on the antiviral plate only. Media was removed and cells were fixed with 1:1 acetone:methanol for 15 minutes at −20° C. Fixative was removed and cells were washed once with PBS containing 0.05% Tween20. In order to block nonspecific binding of antibodies each well was incubated with PBS containing 3% (w/v) bovine serum albumin (BSA) for 1 hour at 22° C. The blocking solution was removed and the cells were washed once with PBS containing 0.05% Tween20 before incubating with 1:100 dilution of primary antibody in PBS containing 3% BSA for 2 hours at 22° C. The primary antibody was a monoclonal antibody (mouse source) specific to the immediate early nuclear antigen of HCMV and was commercially available (Dupont). The 10 antibody solution was removed and the plate was rinsed 5 times with PBS containing 1% (v/v) Triton X-100 (PBST) before incubating with secondary antibody diluted 1:1000 in PBS containing 3% BSA for 2 hours at 22° C. The secondary antibody (goat source) recognized the murine-specific determinants of the 1° antibody and was covalently linked to horseradish peroxidase (Sigma). The plate was rinsed 5 times with PBST and once with deionized water before adding 100 μl TMB substrate solution and incubating 30 minutes at 22° C. The reaction was stopped by adding 100 μL of phosphoric acid and the OD at 450 nm recorded. TMB (3,3′,5,5′ tetramethylbenzidine) was the substrate for the horseradish peroxidase linked to the 2° antibody. […] Antiviral activity was calculated by comparing the amount of viral antigen produced in drug treated wells with that produced in wells absent of drug.

Each structure is given as a SMILES string. Like-named read-outs stand apart in the source and are kept apart here.

Broadly, the melting point is the temperature, or range, at which the solid turns liquid. Compound `COc1ccc(N)c(C[S+]([O-])c2nc3ccccc3[nH]2)c1` (stereo not shown) [Example 20, 2-[(1H-Benzimidazol-2-ylsulfinyl)methyl]-4-methoxybenzenamine] yielded a melting point of 152 to 153 °C. Further, in the data set on gastric acid secretion [1] (iv, 3 mg/kg i.v.), the inhibition in vivo at 3 mg/kg was found to be 37%. Besides, the “Pavlov-Pouch Dog % Inhibition (dose (mg/kg))” value in the data set with gastric acid secretion [2] is recorded as 22 (3 mg/kg) %.

As usually defined, the EC50 is the concentration giving half of the maximal effect. For the compound `Cc1ccc2[nH]c([S+]([O-])Cc3ccccc3N)nc2c1` (stereo not shown) [Example 41, 2-[[(5-Methyl-1H-benzimidazol-2-yl)sulfinyl]-methyl]benzenamine], the melting point is 170 to 171 °C. For the same compound, in the data set with HCMV (strain AD169), the concentration giving a half-maximal response (EC50) stood at 59 µM.

`Nc1ccccc1C[S+]([O-])c1nc2cc(Cl)ccc2[nH]1` (stereo not shown) [Example 43, 2-[[(5-Chloro-1H-benzimidazol-2-yl)sulfinyl]-methyl]benzenamine]: the melting point fell in the range of 165 to 166 °C. In addition, the EC50 in the data set on HCMV (strain AD169) is 23 µM.

As to `Cc1ccc(C[S+]([O-])c2nc3ccccc3[nH]2)c(N)c1C` (stereo not shown) [Example 53, 2-[(1H-Benzimidazol-2-ylsulfinyl)methyl]-5,6-dimethylbenzenamine ¼ hydrate], the inhibition in vivo at 3 mg/kg with gastric acid secretion [1] (intraduodenal, 3 mg/kg i.d.) came to 79%. The EC50 in the data set with HCMV (strain AD169) was determined as 13 µM.

In turn, `COc1ccc2[nH]c([S+]([O-])Cc3c(N)cc(C)c(OC)c3C)nc2c1` (stereo not shown) [Example 78, 2-[[(5-Methoxy-1H-benzimidazol-2-yl)sulfinyl]methyl]-4-methoxy-3,5-dimethylbenzenamine] registered a melting point of 149 to 155 °C. Further, the inhibition in vivo at 3 mg/kg in the data set with gastric acid secretion [1] (intraduodenal, 3 mg/kg i.d.) was determined as 31%. In addition, in the data set with HCMV (strain AD169), the concentration for a half-maximal effect (EC50) was found to be 22 µM.

In the case of `COc1ccc2[nH]c([S+]([O-])Cc3ncc(C)c(OC)c3C)nc2c1` (stereo not shown) [omeprazole, reference compound], the 50% effective concentration (EC50) in the data set on HCMV (strain AD169) is 93 µM.
